Experimental data published in patent publication US5648344A, “Methods of treating inflammation using selection binding compounds” (Glycomed Incorporated, priority 1992, dated 1997).

What was measured:
ELAM-1 [1] = assay: Adhesion of ELAM-transfected COS cells to glycolipids adsorbed to PVC microtiter wells or resolved on TLC plates (controlled detachment force); format: cell-based, human; settings: ELAM-transfected COS cells as probes
Protocol: The invention also includes a method of assaying candidate ligands for their ability to adhere to ELAM-1. The method comprises attaching candidate ligands to a substrate surface and then contacting the substrate surface thereon with recombinant cells, that are genetically engineered to express high levels of ELAM-1, for a sufficient time to allow the cells to adhere to the substrate bearing the candidate ligand. […] Candidate ligands which adhere to ELAM-1 are determined via the labels on the cells. Such molecules are isolated, characterized, and their structure specifically identified. Accordingly, the invention also includes glycolipid ligands which can be isolated via such an assay procedure.
COS cells, expressing membrane-bound ELAM-1, were metabolically radiolabeled with ^32 PO4 and used as probes in two assay systems to screen for recognition of glycolipids. In the first, glycolipids were adsorbed to the bottoms of PVC microtiter wells, while in the second they were resolved on TLC plates. […]

ELAM-1 [2] = assay: Inhibition by carbohydrates of ELAM-transfected COS cell adhesion to glycolipids; format: cell-based, human; settings: for inhibition of cell adhesion to glycolipids: at 100 μg/ml, glycolipids eluted from DEAE-Sepharose with 5 mM potassium acetate; for inhibition of adhesion of ELAM-1 transfected COS cells to sialylated glycolipids: glycolipids resolved on TLC plates or adsorbed on PVC microtiter wells, concentration not given
Description: Radiolabeled COS cells expressing cell surface ELAM-1 were used as probes to screen human leukocyte-derived glycolipids. ELAM-1 transfected COS cells adhered to a subset of sialylated glycolipids which were resolved on TLC plates or adsorbed on PVC microtiter wells. Adhesion to these glycolipids required calcium, but was not inhibited by heparin, chondroitin sulfate, keratin sulfate, or yeast phosphomannan (PPME).
COS cells, expressing membrane-bound ELAM-1, were metabolically radiolabeled with ^32 PO4 and used as probes in two assay systems to screen for recognition of glycolipids. In the first, glycolipids were adsorbed to the bottoms of PVC microtiter wells, while in the second they were resolved on TLC plates. In both assays these glycolipids were probed for their ability to support adhesion of ELAM-transfected COS cells, untransfected COS cells, or COS cells transfected with a plasmid containing an irrelevant cDNA, under conditions of controlled detachment force (see Swank-Hill, P., et al., Anal. Biochem. (1987) 183:27; and Blackburn, C. C., et al., J. Biol. Chem. (1986) 261:2873 each of which is incorporated herein by reference to disclose the details of such assaying methodology).
The material not retained on the column and in fractions eluted by step-wise increases in salt concentration (from 5 mM to 250 mM potassium acetate in methanol) were screened for cell adhesion.

| Compound | recognition by / binding to ELAM-1 (ELAM-1 [1]) | inhibition of cell adhesion to glycolipids (ELAM-1 [2]) | inhibition of adhesion of ELAM-1 transfected COS cells to sialylated glycolipids (ELAM-1 [2]) |
| --- | --- | --- | --- |
| CC(=O)N[C@H]1[C@H]([C@H](O)[C@H](O)CO)O[C@@](O[C@H]2[C@@H](O)[C@@H](CO)O[C@@H](O[C@H]3[C@H](O[C@@H]4O[C@@H](C)[C@@H](O)[C@@H](O)[C@@H]4O)[C@@H](NC(C)=O)C(O)O[C@@H]3CO)[C@@H]2O)(C(=O)O)C[C@@H]1O (stereo partly drawn) [Neu NAc α2-3Gal-β1-4(Fuc α1-3)-GlcNAc] | effectively bind to ELAM-1 |  |  |
| yeast phosphomannan |  | not inhibited | not inhibited |
| keratin sulfate |  | not inhibited | not inhibited |
| chondroitin sulfate |  | not inhibited | not inhibited |
| heparin |  | not inhibited | not inhibited |
